The test system of data set [1] is HCoV-229E-GFP.
For data set [2], the system named is HCoV-229E-GFP. The format is cell-based.
In data set [3] the test system is SARS-CoV-2 (MAD-6). The data set can be described thus: microbe, parasite or virus in culture. Type of data set: cell-based. The settings on record: Severe acute respiratory syndrome coronavirus 2, Vero C1008.
Data set [4] deals with SARS-CoV-2 (MAD-6). The data set can be described thus: microbe, parasite or virus in culture. Type of data set: cell-based. The conditions noted are these: Severe acute respiratory syndrome coronavirus 2, Caco-2.
Data set [5] concerns HCoV-229E-GFP. Type of data set: cell-based. This is another data set of the same source.
Data set [6] has as its system HCoV-229E-GFP. Briefly: organism not typed. Type of data set: cell-based.
In the next data set the test system is SARS-CoV-2. Briefly: microbe, parasite or virus in culture. The format is cell-based. The settings on record: for pIC50: Severe acute respiratory syndrome coronavirus 2, Vero C1008.
In data set [7] the test system is foot-and-mouth disease virus (FMDV). The settings on record: cited from earlier work.
In a further data set the test system is FMDV. The settings on record: mouse, in vivo, 100 mg/kg; cited from earlier work.
Data set [8] can be described thus: Cell viability by MTT assay (cytotoxicity), Huh-7. The conditions noted are these: human, Huh-7 cells. In general terms: Tetrazolium assays rely on reduction of a dye to a coloured formazan, in cell work by metabolically active cells.
The nature of data set [9]: Cell viability by MTT assay (cytotoxicity), Caco-2. The conditions noted are these: human, Caco-2 cells.
The nature of data set [10]: Cell viability by MTT assay (cytotoxicity), Vero-E6. The conditions noted are these: African green monkey, Vero-E6 cells.

pIC50: −log10 of the molar value. Like-named read-outs stand apart in the source and are kept apart here.

This is an account of results in patent EP4104829A1 (priority 2021, dated 2022).

As a reminder, the pIC50 is the IC50 on a negative log10 scale, so that one unit is a factor of ten. The low end stands for a large IC50, the high end for a small IC50. Broadly, the CC50 is the concentration that lowers cell viability or growth by half. High values mean lower toxicity to the cells, low ones greater toxicity to the cells.

With `CCCCCCCCCCCCOC(=O)c1cc(O)c(O)c(O)c1` [LG, Lauryl Gallate], the “direct virucidal effect on the virus particle” value in the data set with HCoV-229E-GFP [1] and in the data set with SARS-CoV-2 MAD-6 was “No direct toxicity” each time. The “decrease in the HCoV-229E-GFP yield” value in the data set with HCoV-229E-GFP [2] is “more than 2 log.u”. Also, the pIC50 in the data set with SARS-CoV-2 (MAD-6) [3] is 5.89; in the data set with SARS-CoV-2 (MAD-6) [4], 5.53; in the data set with HCoV-229E-GFP [5], 5.69; in the data set with SARS-CoV-2 it was 5.92. Besides, the “reduction of the HCoV-229E-GFP infection” value with HCoV-229E-GFP [6] is reported as “up to 2 log.u”. In addition, the SI with SARS-CoV-2 is given as 70,9. Moreover, the “reduction of the virus productivity” value in [7] is on record as “up to 2 log.u”. In addition, in the data set on FMDV, the clinical signs result is recorded as “reduction”. Also, in the data set on FMDV, the mortality entry was “reduction”. Besides, the “viral RNA copies in different tissues” value in the data set with FMDV is recorded as “reduction”. Also, the CC50 at 24 h in data set [8] came out at 83.1 µM; in data set [9] it was 97.1 µM; in data set [10], 90.1 µM.

`CCCCCCCCOC(=O)c1cc(O)c(O)c(O)c1` [OG, octyl gallate]: the “reduction of the HCoV-229E-GFP infection” value in the data set with HCoV-229E-GFP [6] is “up to 2 log.u”. Moreover, the pIC50 with HCoV-229E-GFP [6] (Huh-7) was 5.21. In [7], the “inhibition of FMDV production” value was “totally ineffective”.

Take `CCCOC(=O)c1cc(O)c(O)c(O)c1` [PG, propyl gallate]: in the data set on HCoV-229E-GFP [6], the virus inhibition result was “unable to produce virus inhibition”. Besides, the “inhibition of FMDV production” value in data set [7] is on record as “totally ineffective”.

In the case of `O=C(O[C@@H]1Cc2c(O)cc(O)cc2O[C@@H]1c1ccc(O)c(O)c1)c1cc(O)c(O)c(O)c1` [epicatechin gallate], in the data set with SARS-CoV-2, the SI is reported as 5,8 and the negative logarithm of the IC50 (pIC50) was 4.30.

As to `O=C(O)c1cc(O)c(O)c(O)c1` [gallic acid], the virus inhibition entry in the data set on HCoV-229E-GFP [6] is listed as “unable to produce virus inhibition”. For the same molecule, in the data set on SARS-CoV-2, the SI is 6,2 and the pIC50 is 4.39. In addition, the “inhibition of FMDV production” value in data set [7] is recorded as “totally ineffective”.
